One series has as its system human HSPCs. Put plainly: In vitro radioprotection for human HSPCs (CCK8 viability). To be noted: for cellular viability compared to the group receiving no treatment at the same exposure dose: 2-8 Gy; for cellular viability: 50 μM for 4 h. The method, then: In this exemplary representative experiment, human HSPCs were seeded in a 96-well plate at a density of 2.5×10^4 per well (N=6 for each group). Next, cells were treated with a protective drug conjugate having a peptide sequence of CAPIGIAL (SEQ ID NO: 68) with acetylation at the N-terminus (e.g., AcCAPIGIAL; SEQ ID NO: 80) or amifostine alone at the final concentrations ranging from 0 to 100 μM for 4 h, followed by exposure to y-radiation (Cs-137) at 3 or 8 Gy (0.6 Gy/min). Two hours after the irradiation, the culture medium was replaced by a fresh medium. After 24 h of further incubation, a CCK8 assay was applied to evaluate the cell viability.
In this exemplary representative experiment, human HSPCs were seeded in a 96-well plate at a density of 2.5×10^4 per well (N=6 for each group).

Series [1] relates to human bone marrow mononuclear cells. Kind of series: Colony forming unit assay, protection of cells exposed to carboplatin. To be noted: for CFU counts normalized to untreated cells: 50 μM carboplatin for 4 h. It is filed as cell-based. The method, then: In this exemplary representative chemoprotection experiment, a colony forming unit assay was conducted for bone marrow mononuclear cells exposed to carboplatin with or without the pre-treatment with protective agents. In brief, 1.1×10^4 human bone marrow mononuclear cells were suspended in 300 μL culture medium and mixed with 30 μL solutions of PBS (control), Amifostine, WR1065, or Conjugate (with the peptide sequence of CFLG (SEQ ID NO: 18)) at various concentrations. After 2 h of incubation, cells were washed and resuspended in 300 μL culture medium, followed by incubation with 50 μM carboplatin for 4 h. Next, cells were washed and resuspended in the colony forming medium for 14 days. The number of resultant CFU in each group was then determined, and the results were normalized to the group of cells without any treatment. […] In another exemplary representative chemoprotection experiment, Amifostine and Conjugate with the peptide sequence of CFLG (SEQ ID NO: 18) with concentrations ranging from 50 to 1,000 μM were evaluated.

Series [2] has as its system A549 non-small cell lung cancer cells. Kind of series: CCK-8 cellular proliferation assay, co-culture with chemodrugs. It counts as cell-based. The following applies: for cellular proliferation compared to Non-treatment Control: 72 h. The method, then: In this exemplary representative experiment, a CCK-8 cellular proliferation assay was conducted for A549 non-small cell lung cancer cells exposed to the Carboplatin with or without protective agents.
In another exemplary representative chemoprotection experiment, Paclitaxel was used instead of Carboplatin in the CCK-8 cellular proliferation assay for A549 cells.
(In general: Tetrazolium dyes change colour on reduction, which living cells bring about.)

Series [3] has as its system Hs578T triple-negative breast cancer cells. The description is as above. To be noted: for cellular proliferation compared to Non-treatment Control: 72 h. It counts as cell-based. The method, then: In this exemplary representative experiment, a CCK-8 cellular proliferation assay was conducted for Hs578T triple-negative breast cancer cells exposed to the Carboplatin with or without protective agents.
In another exemplary representative chemoprotection experiment, Paclitaxel was used instead of Carboplatin in the CCK-8 cellular proliferation assay for Hs578T cells.

The conditions of series [4]: in vivo; cited from earlier work.
In a further series the test system is CD2F1 male mice. Put plainly: In vivo radioprotective effects: 30-day survival after Cobalt-60 gamma irradiation. To be noted: for survival rate: 12 h before 9.1 Gy. The method, then:
(§1) CD2F1 male mice (N=16) were subcutaneously (sc) injected with a single dose of two different conjugates. For one protective drug conjugate (Conjugate 1), the tested doses were 200, 400, and 800 mg/kg. The structure of Conjugate 1 included amifostine as the protective drug, alendronate as the bone-targeting ligand, and a protease-cleavable peptide having the sequence of CKPLGLWAL (SEQ ID NO: 33) with acetylation at the N-terminus (e.g., AcCKPLGLWAL; SEQ ID NO: 74). […] The irradiated mice were monitored for survival for 30 days post-irradiation. […] For the vehicle control group, the mortalities of mice occurred during 8 to 17 days post-irradiation, and the final survival rate was 6.25% (1 out of 16 survived), indicating significant mortality by gamma-irradiation.
For another protective drug conjugate (Conjugate 2), the tested doses were 250, 500, 600, and 700 mg/kg, and the irradiation was conducted at 24 h post-drug administration. The structure of Conjugate 2 included amifostine as the protective drug, alendronate as the bone-targeting ligand, and a protease-cleavable peptide having the sequence of CPLGLYAL (SEQ ID NO: 29) with acetylation at the N-terminus (e.g., AcCPLGLYAL; SEQ ID NO: 76).
as §1, with “a” for “two different conjugates. For one”, “1), and” for “1),”, “250, 300,” for “200, 400,”, “350” for “800”, “0% (0” for “6.25% (1”
as §1, with “CD2F1 male mice (N=16) were subcutaneously (sc) injected CD2F1” for “CD2F1”, “a” for “two different conjugates. For one”, “1), and” for “1),”, “250, 300,” for “200, 400,”, “350” for “800”
CD2F1 male mice (N=16) were subcutaneously (sc) injected CD2F1 male mice (N=16) were subcutaneously (sc) injected with a single dose of a protective drug conjugate (Conjugate 1), and the tested doses were 50, 100, and 200 mg/kg. The structure of Conjugate 1 included amifostine as the protective drug, alendronate as the bone-targeting ligand, and a protease-cleavable peptide having the sequence of CKPLGLWAL (SEQ ID NO: 33) with acetylation at the N-terminus (e.g., AcCKPLGLWAL; SEQ ID NO: 74). […] The irradiated mice were monitored for survival for […] post-irradiation. […] For the vehicle control group, the mortalities of mice occurred during 8 to 17 days post-irradiation, and the final survival rate was 0% (0 out of 16 survived), indicating significant mortality by gamma-irradiation.
CD2F1 male mice (N=16) were subcutaneously (sc) injected CD2F1 male mice (N=16) were subcutaneously (sc) injected with a single dose of a protective drug conjugate, i.e., Conjugate 3. The tested doses were 250, 300, and 350 mg/kg. […]

A short description of series [5]: Conjugate cleavage in fresh bone marrow aspirate (HPLC). It is filed as in vitro ADME. The following applies: human bone marrow aspirate, same donor, 37° C., up to 6 h. The method, then: The proteolytic cleavage of conjugates determines the therapeutic window, which is controlled by the specific peptide sequence. In a representative cleavage experiment, a […] stock solution of a conjugate (30 mg/mL) was mixed with 90 μL of fresh bone marrow aspirate, followed by incubation at 37° C. for up to 6 h. A 10 μL sample was taken every hour, diluted in 90 μL acetonitrile to precipitate proteins and extract conjugates and cleavage products. The concentrations of the conjugates in samples were determined by HPLC, normalized, and presented as the cleavage ratio.

In series [6] the target is matrix metalloproteinase 9 (MMP9) (Homo sapiens, UniProt P14780). Put plainly: In vitro matrix metalloproteinase-based conjugate cleavage. The following applies: isolated enzyme, MMP9, 37° C., up to 20 h, read-out: T1/2 of cleavage (converted). It is filed as biochemical. The method, then:
In this exemplary representative cleavage experiment, a 90 μL stock solution of protective drug conjugate (1 mg/mL) was mixed with 2 μL of matrix metalloproteinase 9 (MMP9) (10 unit/μL) and 8.2 μL of 50 mM CaCl2 solution, followed by incubation at 37° C. for up to 20 h. A 10 μL sample was taken at 0.3, 1, 2, 4, 9, or 20 h for the HPLC analysis. Three conjugates having different peptide sequences (Conjugates 1-3) were used in this test: Conjugate 1-peptide sequence of CPLSLYAL (SEQ ID NO: 65); Conjugate 2-peptide sequence of CPLSLYSL (SEQ ID NO: 66); and Conjugate 3-peptide sequence of CPLGLAL (SEQ ID NO: 67). The concentrations of the conjugate residual in samples were normalized and presented as cleavage ratios.

Ends that are not written are not given here. Peptide text beside a SMILES is read from it. * marks the point of attachment. X1 = O=C(CCCCCN1C(=O)CC(*)C1=O)NCCCC(O)(P(=O)(O)O)P(=O)(O)O; X2 = O=P(O)(O)SCCNCCCN*

matrix metalloproteinase 9 (MMP9), sequence (P14780 94-707, species assumed): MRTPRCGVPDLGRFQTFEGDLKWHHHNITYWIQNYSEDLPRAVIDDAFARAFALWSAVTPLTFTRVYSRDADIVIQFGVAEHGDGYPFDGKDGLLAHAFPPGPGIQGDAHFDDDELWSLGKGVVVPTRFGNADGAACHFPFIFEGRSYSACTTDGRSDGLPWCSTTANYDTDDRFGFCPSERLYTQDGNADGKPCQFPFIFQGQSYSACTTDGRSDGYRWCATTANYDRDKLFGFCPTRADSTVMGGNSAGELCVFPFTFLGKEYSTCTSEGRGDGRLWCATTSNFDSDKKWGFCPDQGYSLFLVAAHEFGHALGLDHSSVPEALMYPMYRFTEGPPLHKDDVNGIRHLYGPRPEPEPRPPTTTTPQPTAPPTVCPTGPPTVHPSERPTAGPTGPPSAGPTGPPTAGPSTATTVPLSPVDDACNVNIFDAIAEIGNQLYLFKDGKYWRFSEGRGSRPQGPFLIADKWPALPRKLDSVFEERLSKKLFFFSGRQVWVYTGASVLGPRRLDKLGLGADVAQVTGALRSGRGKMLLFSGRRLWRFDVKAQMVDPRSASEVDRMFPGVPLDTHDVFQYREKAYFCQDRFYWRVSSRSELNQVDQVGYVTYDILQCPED

As to `NCCCNCCSP(=O)(O)O` [Amifostine], the “cellular viability compared to the group receiving no treatment at the same exposure dose” value with human HSPCs (50 μM) is given as “much higher cellular viability”. For the same compound, the “mitigation of Carboplatin-caused CFU reduction” value in series [1] (pretreatment 50 to 1,000 μM, dose-dependent (FIG. 8B)) is reported as “significantly mitigated”. In addition, the “toxicity to A549 cells” value in series [2] (10 to 200 μM) is “non-toxic”. The “toxicity to Hs578T cells” value in series [3] (10 to 200 μM) is reported as “non-toxic”. In series [4], the “bone marrow residence time” value is under 30 min and the pharmacokinetic circulating time is given as under 8 min.
Regarding `N.N.O=C([O-])C1(C(=O)[O-])CCC1.[Pt+2]` [Carboplatin], the entries for the “CFU counts normalized to untreated cells” value in series [1] (no protective agent (FIG. 8A)) and in series [1] (no protective agent (FIG. 8B)) were about 40% and about 30%, respectively. For the same compound, the results for the “cellular proliferation compared to Non-treatment Control” value in series [2] (0.1 mM Carboplatin) and in series [3] (0.1 mM Carboplatin) were about 30% and about 35%, respectively.
With `CC(=O)N[C@@H](CSC1CC(=O)N(CCCCCC(=O)NCCCC(O)(P(=O)(O)O)P(=O)(O)O)C1=O)C(=O)N[C@@H](CCCCN)C(=O)N1CCC[C@H]1C(=O)N[C@@H](CC(C)C)C(=O)NCC(=O)N[C@@H](CC(C)C)C(=O)N[C@@H](Cc1c[nH]c2ccccc12)C(=O)N[C@@H](C)C(=O)N[C@@H](CC(C)C)C(=O)NCCCNCCSP(=O)(O)O` (stereo partly shown) [Conjugate 1] (Ac-C(X1)KPLGLWAL-X2), the figures for the survival rate in the series with CD2F1 male mice (50 mg/kg sc), in the series on CD2F1 male mice (100 mg/kg sc) and in the series on CD2F1 male mice (200 mg/kg sc) were 75%, 93.75% and 93.75%, respectively. Further, the 30-day survival rate in the series with CD2F1 male mice (200 mg/kg sc, 6 h before 9.2 Gy) was 68.75%; in the series with CD2F1 male mice (250 mg/kg sc, 9 h before 9.2 Gy), 75%; with CD2F1 male mice (250 mg/kg sc, 12 h before 9.2 Gy), 100%; with CD2F1 male mice (300 mg/kg sc, 9 h before 9.2 Gy), 87.25%; in the series with CD2F1 male mice (300 mg/kg sc, 12 h before 9.2 Gy) it was 87.5%; in the series on CD2F1 male mice (350 mg/kg sc, 9 h before 9.2 Gy) it was 56.25%. Besides, the 30-day survival rate came out at 81.25% in the series with CD2F1 male mice (350 mg/kg sc, 12 h before 9.2 Gy); 81.25% with CD2F1 male mice (400 mg/kg sc, 6 h before 9.2 Gy); 68.75% in the series on CD2F1 male mice (800 mg/kg sc, 6 h before 9.2 Gy). The “time to reach 50% conjugate cleavage” value in series [5] was 2.4 h. Besides, in series [6], the half-life at 0.898 mg/mL was about 2 h.
In the case of `CC(=O)O[C@H]1C(=O)[C@@]2(C)[C@H]([C@H](OC(=O)c3ccccc3)[C@]3(O)C[C@H](OC(=O)[C@H](O)[C@@H](NC(=O)c4ccccc4)c4ccccc4)C(C)=C1C3(C)C)[C@]1(OC(C)=O)CO[C@@H]1C[C@@H]2O` [Paclitaxel], the “cellular proliferation compared to Non-treatment Control” value is on record as about 30% in series [2] (5 nM Paclitaxel) and about 35% in series [3] (5 nM Paclitaxel).
With “Conjugate (AcCAPIGIAL): protective drug conjugate having peptide sequence CAPIGIAL with acetylation at the N-terminus (SEQ ID NO: 80) (Ac-CAPIGIAL; also: amifostine conjugate (site not given here))”, the cellular viability came out at 91.9% with human HSPCs (then 2 Gy (FIG. 6B)), 61.1% in the series with human HSPCs (then 8 Gy (FIG. 6A)) and 59.6% with human HSPCs (then 8 Gy (FIG. 6B)). Besides, the “cellular viability compared to the group receiving no treatment at the same exposure dose” value in the series on human HSPCs (50 μM) is “much higher cellular viability”. In addition, the “cellular viability relative to the control group” value in the series with human HSPCs (50 μM, 8 Gy) is about 2.3 fold. In the series on human HSPCs (50 μM, any exposure dose from 2 Gy to 8 Gy), the “difference in cellular viability between conjugate and amifostine groups” value is on record as “no statistical difference”. Further, in the series with human HSPCs (8 Gy, 0-100 μM tested), the “concentration of maximum radioprotective efficacy” value came out at 50 µM. For the same compound, the radioprotective effect entry with human HSPCs (50 or 100 μM, 3 Gy) is “significant radioprotective effect”.
